Results as given in patent US9963461B2, “Phillygenin ibuprofen ester, preparation method therefor, and application thereof” (priority 2014, dated 2018).
Where two headings read alike, the source gives them in different places. Marks after values point to notes of the source that are not given here.

Legend:
[1] = tested on: Coxsackie virus A16 (CoxA16); assay: Impact of the drugs on the virus-induced cytopathy (MTT); format: cell-based; conditions: CoxA16 100 TCID50, Vero cells, about the maximal non-cytotoxic concentration, 72 hours
parainfluenza virus [2] = format: in vivo, Kunming mice; conditions: parainfluenza virus infected mice; 19.5 mg/kg/d intragastric, 5 days
[3] = tested on: coxsackie virus B3 (CVB3); assay: Impact of the drugs on the virus-induced cytopathy (MTT); format: cell-based; conditions: CVB3 100 TCID50, Vero cells, about the maximal non-cytotoxic concentration, 72 hours
Enterovirus EV71 = assay: as above; format: cell-based; conditions: EV71 100 TCID50, Vero cells, about the maximal non-cytotoxic concentration, 72 hours
influenza virus [4] = assay: as above; format: cell-based
parainfluenza virus [5] = format: in vivo, Kunming mice; conditions: lung suspensions, parainfluenza virus infected mice, 5 days
influenza virus [6] = format: in vivo, Kunming mice; conditions: lung suspensions, influenza virus infected mice, 5 days
[7] = tested on: Herpes Simplex Virus type I (HSV-1); assay: Impact of the drugs on the virus-induced cytopathy (MTT); format: cell-based; conditions: HSV-I 100 TCID50, Vero cells, about the maximal non-cytotoxic concentration, 72 hours
parainfluenza virus [8] = assay: as above; format: cell-based; conditions: parainfluenza virus 100 TCID50, Vero cells, about the maximal non-cytotoxic concentration, 72 hours
influenza virus [9] = format: in vivo, Kunming mice; conditions: influenza virus infected mice; 19.5 mg/kg/d intragastric, 5 days
Adenovirus (AdV) = assay: Impact of the drugs on the virus-induced cytopathy (MTT); format: cell-based; conditions: ADV 100 TCID50, Vero cells, about the maximal non-cytotoxic concentration, 72 hours
[10] = tested on: respiratory syncytial virus (RSV); assay: as above; format: cell-based; conditions: RSV 100 TCID50, Vero cells, about the maximal non-cytotoxic concentration, 72 hours
Vero cell = assay: Cytotoxicity test on Vero cell (MTT); conditions: 72 hours

## CCOC(=O)C1=C[C@@H](OC(CC)CC)[C@H](NC(C)=O)[C@@H](N)C1 [Oseltamivir phosphate, oseltamivir phosphate]
[1]
  antiviral effective rate (ER %): 2.95%
Parainfluenza virus [2]
  Lung index (X ± S): 1.243 ± 0.052
  Lung index Inhibitive rate (%): 21.85%
[3]
  antiviral effective rate (ER %): 1.64%
Enterovirus EV71
  antiviral effective rate (ER %): 51.86%
Influenza virus [4]; influenza virus 100 TCID50, Vero cells, about the maximal non-cytotoxic concentration, 72 hours
  antiviral effective rate (ER %): 81.76** %
Parainfluenza virus [5]; 19.5 mg/kg/d
  Hemagglutination titer (InX): 22.05 ± 1.055
  Hemagglutination titer Inhibitive rate (%): 33.44%
Influenza virus [6]; 19.5 mg/kg/d
  Hemagglutination titer (InX): 20.50 ± 1.122
  Hemagglutination titer Inhibitive rate (%): 36.73%
[7]
  antiviral effective rate (ER %): 66.56** %
Parainfluenza virus [8]
  antiviral effective rate (ER %): 94.52** %
Influenza virus [9]
  Lung index (X ± S): 1.178 ± 0.066
  Lung index Inhibitive rate (%): 19.84%
Adenovirus (AdV)
  antiviral effective rate (ER %): 10.31%
[10]
  antiviral effective rate (ER %): 37.60%
Vero cell
  Median toxic concentration (TC50): 832 µg/mL
  maximal non-toxic concentration (TC0): 0.28 g/L

## NC(=O)c1ncn([C@@H]2O[C@H](CO)[C@@H](O)[C@H]2O)n1 [Ribavirin, ribavirin]
[1]
  antiviral effective rate (ER %): 0.70%
[3]
  antiviral effective rate (ER %): 13.44%
Enterovirus EV71
  antiviral effective rate (ER %): 4.25%
Influenza virus [4]
  antiviral effective rate (ER %): 57.49* %
Parainfluenza virus [5]; 58.5 mg/kg/d
  Hemagglutination titer (InX): 23.22 ± 1.091
  Hemagglutination titer Inhibitive rate (%): 24.53%
Influenza virus [6]; 58.5 mg/kg/d
  Hemagglutination titer (InX): 21.91 ± 1.050
  Hemagglutination titer Inhibitive rate (%): 32.39%
[7]
  antiviral effective rate (ER %): 60.92* %
Parainfluenza virus [8]
  antiviral effective rate (ER %): 81.56** %
Adenovirus (AdV)
  antiviral effective rate (ER %): 0.43%
[10]
  antiviral effective rate (ER %): 50.08* %
